In patent publication US20030187067A1, “Use of anethole-dithiolethione for preventing and treating drug-induced tendon toxicity” (priority 2000, published 2003):

Tested on: immortalised tenocytes, known as TENO (Teno Cell Line)
Test: type II MIFALC (Microtitration Fluorimetric Assay on Living Cells) test, H2DCF-DA fluorescence, tendon toxicity of fluoroquinolones/statins
Type: cell-based
Settings: pretreatment with anethole-dithiolethione 20 μM, 72 hours before contact with the xenobiotics; free radicals by H2DCF-DA fluorescence read after 40 minutes
Description: The test carried out is a type II MIFALC (Microtitration Fluorimetric Assay on Living Cells) test, that is to say that all of the steps, including detection/disclosure, are carried out on living cells, the test using fluorimetric detection under cold light, in order to achieve the maximum level of detection sensitivity and specificity necessary for the intracellular studies. The tests are carried out on a line of immortalised tenocytes, known as TENO (Teno Cell Line).
The cultures are produced in […] flasks for cell multiplication and in plates having 96 shallow wells for culture.
The tenocytes are placed in suspension with a small amount of trypsin. When the cells are released, the action of the trypsin is blocked by the addition of culture medium containing fetal calf serum. After centrifuging, the residue is taken up by complete medium HAM F-12, then the cells are counted using a Malassez or Thoma hemocytometer. Next, a solution of 27,500 cells/ml is prepared in the complete culture medium and 200 μl are placed in each of the central 60 wells of the microplates having 96 wells. Therefore, there are 5,500 cells per well. The plates are placed in incubation at 37° C. in a humid atmosphere of air/CO2 (95%/5%). The test is carried out after 48 hours when the cells adhere to the support. […]
The fluorescence units are read after 40 minutes.

For `COc1ccc(-c2cc(=S)ss2)cc1` [anethole-dithiolethione], the “protection against tendon toxicity (cytotoxic effect) of fluoroquinolones in cellular tenocyte model” value was “protects against this tendon toxicity”.
